The record followed here is PubChem BioAssay (NCI).

Among the test systems are MDA-MB-435; 786-0 renal; A498 renal; RPMI-8226 leukemia; A549 NSCLC; NCI-H460 lung; IGROV1 ovarian; OVCAR-4 ovarian; OVCAR-3 ovarian; SNB-19 CNS.
What all share (assay): DTP human tumour cell line panel, 48 h

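The compound was tested at five concentrations on cells cultured in 96-well plates, with a 48-hour exposure period. GI50 marks 50% less growth. TGI is the concentration that stops growth completely.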 Where only a bound is given, the exact number is not on record here.

Regarding `CC1CC[P+](c2ccccc2)(c2ccccc2)c2c1ccc1ccccc21` (stereo not given), the TGI with MDA-MB-435 was 16.4 µM; with 786-0 renal it was 43.4 µM; in the assay on A498 renal it was 88.2 µM; with RPMI-8226 leukemia, 11.6 µM; in the assay on A549 NSCLC, more than 100 µM; in the assay on NCI-H460 lung, 10.1 µM. Moreover, the TGI with IGROV1 ovarian is 21.2 µM; in the assay with OVCAR-4 ovarian, more than 100 µM; in the assay with OVCAR-3 ovarian, more than 58.8 µM; with SNB-19 CNS it was 97.4 µM. The GI50 with 786-0 renal is 11 µM; in the assay on A498 renal it was 35.1 µM; in the assay on RPMI-8226 leukemia, 1.63 µM; with IGROV1 ovarian it was 4.42 µM; with OVCAR-3 ovarian it was 3.09 µM.

For the compound `CCC(C)[C@H](NC(=O)Nc1cc(C(F)(F)F)cc(C(F)(F)F)c1)C(=O)N[C@@H](Cc1cn(C)cn1)C(=O)OC` (stereo not given in full), the GI50 in the assay with MDA-MB-435 was 0.825 µM; in the assay on 786-0 renal, 1.19 µM; in the assay on A498 renal, 1.6 µM; with RPMI-8226 leukemia, 0.721 µM; in the assay on A549 NSCLC, 1.33 µM; with NCI-H460 lung, 0.895 µM. For the same compound, the GI50 in the assay with IGROV1 ovarian is 1.04 µM; in the assay with OVCAR-4 ovarian, 0.599 µM; in the assay with OVCAR-3 ovarian, 0.621 µM; in the assay with SNB-19 CNS, 0.672 µM. Moreover, the TGI in the assay on MDA-MB-435 stood at 1.85 µM; in the assay with 786-0 renal, 1.88 µM; in the assay on A498 renal, 3.4 µM; with RPMI-8226 leukemia, 1.86 µM; in the assay with A549 NSCLC it was 1.85 µM; with NCI-H460 lung, 1.89 µM. Moreover, the TGI was 2.06 µM in the assay with IGROV1 ovarian, 1.12 µM with OVCAR-4 ovarian, 1.14 µM in the assay on OVCAR-3 ovarian and 1.52 µM in the assay on SNB-19 CNS.

With `CCOC(=O)c1cc2c(cc1Cl)SC(=Nc1ccccc1)N(S(=O)(=O)c1ccc(Cl)cc1)S2(=O)=O`, the GI50 in the assay on MDA-MB-435 was 12.9 µM; in the assay with 786-0 renal, 13.5 µM; with A498 renal, 11.4 µM; with RPMI-8226 leukemia it was 4.26 µM; with A549 NSCLC it was 26.1 µM; in the assay on NCI-H460 lung, 18.8 µM. The GI50 in the assay with IGROV1 ovarian is 8.11 µM; in the assay with OVCAR-4 ovarian, 31.5 µM; in the assay with OVCAR-3 ovarian, 12.2 µM; in the assay with SNB-19 CNS, 20.2 µM. In addition, the concentration for total growth inhibition (TGI) was determined as 28.4 µM with MDA-MB-435; 27.5 µM in the assay on 786-0 renal; 24.6 µM in the assay with A498 renal; 19.4 µM in the assay on RPMI-8226 leukemia; 68 µM in the assay with A549 NSCLC; 46.7 µM in the assay on NCI-H460 lung. Moreover, the TGI with IGROV1 ovarian is 22.5 µM; with OVCAR-4 ovarian, more than 100 µM; in the assay on OVCAR-3 ovarian it was 26.3 µM; with SNB-19 CNS it was more than 100 µM.

As to `CCN(Cc1ccccc1)C1CCN(Cc2cc(Br)ccc2O)CC1`, the GI50 in the assay with MDA-MB-435 was 30.2 µM; in the assay with 786-0 renal, 35.9 µM; in the assay with A498 renal it was 9.29 µM; with RPMI-8226 leukemia it was 25.5 µM; in the assay on A549 NSCLC, 69.6 µM; in the assay with NCI-H460 lung it was 58.2 µM. Besides, the GI50 with IGROV1 ovarian is more than 100 µM; in the assay on OVCAR-4 ovarian, 33.7 µM; in the assay on OVCAR-3 ovarian it was 80.6 µM; in the assay on SNB-19 CNS it was 57.2 µM. Besides, the TGI in the assay with MDA-MB-435, in the assay on 786-0 renal, in the assay with A498 renal, in the assay with RPMI-8226 leukemia, in the assay on A549 NSCLC and with NCI-H460 lung was more than 100 µM each time. In addition, the TGI in the assay with IGROV1 ovarian, with OVCAR-4 ovarian, with OVCAR-3 ovarian and with SNB-19 CNS was more than 100 µM each time.

On to `O=S(=O)(NNc1ccccc1)c1ccccc1`, for which the TGI in the assay with MDA-MB-435 was 21.3 µM; with 786-0 renal, more than 100 µM; in the assay on A498 renal, more than 100 µM; with RPMI-8226 leukemia, 46.4 µM; in the assay with A549 NSCLC, 23.5 µM; in the assay with NCI-H460 lung, 21.2 µM. Besides, the TGI with IGROV1 ovarian is 32.7 µM; with OVCAR-4 ovarian, 31.5 µM; with OVCAR-3 ovarian, 58.7 µM; in the assay on SNB-19 CNS it was more than 100 µM.

Take `CNC(=O)c1c(NC(=O)c2ccc(C(C)(C)C)cc2)sc2c1CCC(=O)C2`: the GI50 in the assay with MDA-MB-435 is 0.335 µM; in the assay with 786-0 renal, 0.434 µM; in the assay with A498 renal, 0.647 µM; in the assay on RPMI-8226 leukemia, 0.0553 µM; in the assay with A549 NSCLC, 0.3 µM; in the assay with NCI-H460 lung, 0.352 µM. The GI50 in the assay on IGROV1 ovarian was 0.373 µM; in the assay with OVCAR-4 ovarian, 0.195 µM; with OVCAR-3 ovarian it was 0.444 µM; with SNB-19 CNS, 0.321 µM. For the same compound, the TGI in the assay on MDA-MB-435 came to 1.42 µM; in the assay on 786-0 renal, 1.83 µM; in the assay with A498 renal, 3.62 µM; in the assay with RPMI-8226 leukemia, 0.511 µM; in the assay with A549 NSCLC it was 1.6 µM; in the assay on NCI-H460 lung it was 1.47 µM. Also, the TGI in the assay on IGROV1 ovarian was determined as 1.64 µM; in the assay on OVCAR-4 ovarian, 0.991 µM; with OVCAR-3 ovarian, 1.6 µM; in the assay on SNB-19 CNS, 1.39 µM.

As for `COc1ncc(Nc2ncc([C@@H](C)N3CCN(S(C)(=O)=O)CC3)cc2-c2nc(C)nc(N)n2)cc1F`, the GI50 with MDA-MB-435 is 1.15 µM; in the assay on 786-0 renal, 0.0192 µM; with A498 renal, less than 0.01 µM; in the assay on RPMI-8226 leukemia, 7.13 µM; with A549 NSCLC it was 0.186 µM; in the assay on NCI-H460 lung it was 0.135 µM. Besides, the GI50 in the assay on IGROV1 ovarian is 0.0139 µM; in the assay with OVCAR-4 ovarian, 3.29 µM; in the assay on OVCAR-3 ovarian, 0.0468 µM; in the assay on SNB-19 CNS, 0.325 µM. Further, the TGI with MDA-MB-435 was more than 100 µM; in the assay on 786-0 renal it was 2.86 µM; with A498 renal, 0.0309 µM; with RPMI-8226 leukemia, more than 100 µM; in the assay on A549 NSCLC, more than 40.7 µM; in the assay on NCI-H460 lung, more than 100 µM. The TGI in the assay with IGROV1 ovarian is 0.0829 µM; in the assay with OVCAR-4 ovarian it was more than 100 µM; in the assay with OVCAR-3 ovarian it was 11.2 µM; in the assay on SNB-19 CNS it was more than 66.8 µM.

With `CCN(CC)CCCNc1cc(OC)cc2nc3cc(Cl)ccc3nc12`, the GI50 in the assay on MDA-MB-435 was 1.87 µM; in the assay on 786-0 renal, 1.18 µM; with A498 renal, 1.27 µM; in the assay with RPMI-8226 leukemia, 2.53 µM; in the assay on A549 NSCLC, 1.18 µM; in the assay with NCI-H460 lung, 1.83 µM. Further, the GI50 in the assay on IGROV1 ovarian is 1.96 µM; in the assay with OVCAR-4 ovarian, 1.67 µM; in the assay with OVCAR-3 ovarian it was 2.06 µM; in the assay with SNB-19 CNS it was 2.77 µM. Further, the TGI in the assay on MDA-MB-435 came out at 3.97 µM; in the assay on 786-0 renal it was 3.5 µM; in the assay with A498 renal it was 2.7 µM; in the assay with RPMI-8226 leukemia, 6.25 µM; in the assay with A549 NSCLC it was 5.3 µM; in the assay with NCI-H460 lung it was 10.3 µM. Besides, the TGI in the assay with IGROV1 ovarian amounted to 6.78 µM; with OVCAR-4 ovarian it was 3.51 µM; in the assay with OVCAR-3 ovarian, 5.9 µM; in the assay on SNB-19 CNS, 11.7 µM.

As usually defined, the TGI is the concentration at which net growth stops. Read a high TGI as lower sensitivity of the cells. As usually defined, the GI50 is the concentration that inhibits growth by half.
